3 compounds from patent US4482565A, “β-Lactam-containing antibacterial agents and β-lactamase inhibitors” (Farmitalia Carlo Erba S.p.A., priority 1981, dated 1984) can be followed below.

What all share (type): cell-based
For test [1], the system named is Staphylococcus aureus 209P. The experiment in a line: in vitro antibacterial activity (MIC). As to conditions: collection strain, read-out: MIC (minimal inhibitory concentration).
Test [2] has as its system Staphylococcus aureus 153. The test can be described thus: in vitro antibacterial activity (MIC). As to conditions: lactamase producer, read-out: MIC (minimal inhibitory concentration).
The test system of test [3] is Staphylococcus aureus Smith. The experiment in a line: in vitro antibacterial activity (MIC). As to conditions: collection strain, read-out: MIC (minimal inhibitory concentration).
In another test the test system is Streptococcus pyogenes. The test can be described thus: in vitro antibacterial activity (MIC). As to conditions: in vitro, read-out: MIC (minimal inhibitory concentration).
The next test has as its system Escherichia coli B. The experiment in a line: in vitro antibacterial activity (MIC). As to conditions: in vitro; Escherichia coli B; collection strain; read-out: MIC (minimal inhibitory concentration).
The next test has as its system Pseudomonas aeruginosa. The experiment in a line: in vitro antibacterial activity (MIC). The following applies: read-out: MIC (minimal inhibitory concentration).
Test [4] relates to Salmonella typhimurium. The test can be described thus: in vitro antibacterial activity (MIC). As to conditions: Salmonella enterica, Salmonella typhimurium (first listing), read-out: MIC (minimal inhibitory concentration).
For another test, the system named is Escherichia coli B Cef R. The test can be described thus: in vitro antibacterial activity (MIC). The following applies: read-out: MIC (minimal inhibitory concentration).
Another test deals with Escherichia coli RGN 238. The test can be described thus: in vitro antibacterial activity (MIC). As to conditions: RGN238, lactamase producer, read-out: MIC (minimal inhibitory concentration).
In the next test the test system is Escherichia coli P 453. The test can be described thus: in vitro antibacterial activity (MIC). The following applies: P453; in vitro; Escherichia coli P 453; lactamase producer; read-out: MIC (minimal inhibitory concentration).
The next test deals with Escherichia coli R 997. The test can be described thus: in vitro antibacterial activity (MIC). The following applies: R997, read-out: MIC (minimal inhibitory concentration).
The test system of another test is Escherichia coli R 57 B. The test can be described thus: in vitro antibacterial activity (MIC). As to conditions: R57B; in vitro; Escherichia coli R 57 B; lactamase producer; read-out: MIC (minimal inhibitory concentration).
In another test the test system is Escherichia coli RP 1. The test can be described thus: in vitro antibacterial activity (MIC). As to conditions: RP1, read-out: MIC (minimal inhibitory concentration).
For another test, the system named is Escherichia coli R 46. The test can be described thus: in vitro antibacterial activity (MIC). As to conditions: R46; in vitro; Escherichia coli R 46; lactamase producer; read-out: MIC (minimal inhibitory concentration).
In the next test the test system is Escherichia coli R 6 K. The experiment in a line: in vitro antibacterial activity (MIC). As to conditions: R6K, read-out: MIC (minimal inhibitory concentration).
Test [5] deals with Pseudomonas aeruginosa FI. The test can be described thus: in vitro antibacterial activity (MIC). The following applies: collection strain, read-out: MIC (minimal inhibitory concentration).
Test [6] concerns Pseudomonas aeruginosa ATCC 2598. The experiment in a line: in vitro antibacterial activity (MIC). As to conditions: ATCC2598, collection strain, read-out: MIC (minimal inhibitory concentration).
The subject of test [7] is Klebsiella aerogenes ATCC 1082 E. The test can be described thus: in vitro antibacterial activity (MIC). The following applies: ATCC1082; in vitro; Klebsiella aerogenes ATCC 1082 E; lactamase producer; read-out: MIC (minimal inhibitory concentration).
For test [8], the system named is Klebsiella pneumoniae ATCC 10031. The experiment in a line: in vitro antibacterial activity (MIC), second listing of the strain. The following applies: ATCC10031, collection strain (second listing), read-out: MIC (minimal inhibitory concentration).
In test [9] the test system is Enterobacter cloacae P 99. The experiment in a line: in vitro antibacterial activity (MIC). The following applies: P99, read-out: MIC (minimal inhibitory concentration).
In a further test the test system is Enterobacter cloacae 214. The test can be described thus: in vitro antibacterial activity (MIC). As to conditions: lactamase producer, read-out: MIC (minimal inhibitory concentration).
Test [10] has as its system Salmonella abortivoequina. The experiment in a line: in vitro antibacterial activity (MIC). The following applies: collection strain, read-out: MIC (minimal inhibitory concentration).
The subject of test [11] is Salmonella typhimurium. The test can be described thus: in vitro antibacterial activity (MIC), collection strain. As to conditions: Salmonella enterica; in vitro; Salmonella Typhimurium; collection strain (second listing); read-out: MIC (minimal inhibitory concentration).
Another test has as its system Proteus mirabilis. Described as above. The following applies: in vitro, collection strain, read-out: MIC (minimal inhibitory concentration).
Test [12] concerns Staphylococcus aureus PV2. The test can be described thus: in vitro antibacterial activity (MIC). The following applies: read-out: MIC (minimal inhibitory concentration).
The test system of a further test is Escherichia coli V14. The test can be described thus: in vitro antibacterial activity (MIC). As to conditions: read-out: MIC (minimal inhibitory concentration).
Another test deals with Escherichia coli V23. The test can be described thus: in vitro antibacterial activity (MIC). As to conditions: read-out: MIC (minimal inhibitory concentration).
Another test concerns Enterobacter sp V19. The experiment in a line: in vitro antibacterial activity (MIC). As to conditions: read-out: MIC (minimal inhibitory concentration).
Another test relates to Klebsiella sp. R2. The experiment in a line: in vitro antibacterial activity (MIC). As to conditions: read-out: MIC (minimal inhibitory concentration).
Another test concerns Proteus vulgaris V15. The test can be described thus: in vitro antibacterial activity (MIC). As to conditions: read-out: MIC (minimal inhibitory concentration).
The subject of another test is Proteus mirabilis V15. The experiment in a line: in vitro antibacterial activity (MIC). As to conditions: read-out: MIC (minimal inhibitory concentration).
The test system of a further test is Proteus mirabilis 525. The experiment in a line: in vitro antibacterial activity (MIC). The following applies: in vitro; Proteus mirabilis 525; read-out: MIC (minimal inhibitory concentration).
For the next test, the system named is Shigella flexneri. The test can be described thus: in vitro antibacterial activity (MIC). The following applies: read-out: MIC (minimal inhibitory concentration). The procedure:
A series of tests was carried out in vitro to compare the activities of (5R)-acetoxymethyl-2-acetoxymethyl-2-penum-3-carboxylate (Laboratory code FCE/20077/B40/341), (5R) acetoxymethyl-2-[(1-methyl-1H-tetrazol-5-yl)-thiomethyl]-2-penem-3-carboxylate (compound A), three reference compounds (ampicillin, cefoxitin, and thienamycin), and compound 387, which is (5R)-2-acetoxymethyl-6-(1-hydroxyethyl)-2-penem-3-carboxylic acid. The acetoxymethoxy ester of compound 387 is prepared in Example 51 and the sodium salt of the acid is prepared in Example 98 infra. Table 1 below reports the results of the above assays as MIC (minimal inhibitory concentration).

The test system of another test is Salmonella panamae F15. The test can be described thus: in vitro antibacterial activity (MIC). As to conditions: in vitro; Salmonella panamae F15; read-out: MIC (minimal inhibitory concentration).
Test [13] concerns Salmonella Saint Paul F20. The test can be described thus: in vitro antibacterial activity (MIC). As to conditions: read-out: MIC (minimal inhibitory concentration).
The subject of a further test is Salmonella derby F14. The experiment in a line: in vitro antibacterial activity (MIC). The following applies: Salmonella enterica, read-out: MIC (minimal inhibitory concentration).
In test [14] the test system is Salmonella montevideo F16. The experiment in a line: in vitro antibacterial activity (MIC). As to conditions: Salmonella enterica, read-out: MIC (minimal inhibitory concentration).

Values after ≈ are worked out from the molar mass of the structure shown. Like-named read-outs stand apart in the source and are kept apart here.

With `CC(=O)OCC1=C(C(=O)O)N2C(=O)C(C(C)O)[C@H]2S1` (stereo partly drawn) [Example 387, (5R)-2-acetoxymethyl-6-(1-hydroxyethyl)-2-penem-3-carboxylic acid], the MIC in test [1] turned out to be 0.095 µg/mL (≈ 0.331 µM); in test [2], 0.045 µg/mL (≈ 0.157 µM); in test [3], 0.045 µg/mL (≈ 0.157 µM); in the test on Streptococcus pyogenes, 0.19 µg/mL (≈ 0.661 µM); in the test with Escherichia coli B it was 0.78 µg/mL (≈ 2.71 µM); with Pseudomonas aeruginosa (in vitro) it was 1.56 µg/mL (≈ 5.43 µM). The MIC in the test with Salmonella typhimurium [4] amounted to 0.39 µg/mL (≈ 1.36 µM); in the test on Escherichia coli B Cef R, 25 µg/mL (≈ 87 µM); in the test on Escherichia coli RGN 238 it was 0.78 µg/mL (≈ 2.71 µM); in the test with Escherichia coli P 453, 0.78 µg/mL (≈ 2.71 µM); in the test with Escherichia coli R 997, 0.78 µg/mL (≈ 2.71 µM); in the test on Escherichia coli R 57 B it was 0.78 µg/mL (≈ 2.71 µM). In addition, the MIC is 0.39 µg/mL (≈ 1.36 µM) in the test on Escherichia coli RP 1; 0.78 µg/mL (≈ 2.71 µM) in the test on Escherichia coli R 46; 0.78 µg/mL (≈ 2.71 µM) in the test with Escherichia coli R 6 K; 1.56 µg/mL (≈ 5.43 µM) in test [5]; more than 25 µg/mL in [6]; 1.56 µg/mL (≈ 5.43 µM) in test [7]. Also, the MIC in test [8] worked out at 0.78 µg/mL (≈ 2.71 µM); in test [9] it was 3.12 µg/mL (≈ 10.9 µM); in the test on Enterobacter cloacae 214, 12.5 µg/mL (≈ 43.5 µM); in [10] it was 0.19 µg/mL (≈ 0.661 µM); in the test on Salmonella typhimurium [11] it was 0.39 µg/mL (≈ 1.36 µM); in the test with Proteus mirabilis, 0.39 µg/mL (≈ 1.36 µM).

For `CC(=O)OCOC(=O)C1=C(COC(C)=O)S[C@@H]2CC(=O)N12` [FCE/20077/B40/341, (5R)-Acetoxymethyl-2-acetoxymethyl-2-penem-3-carboxylate], the MIC in test [1] is 0.39 µg/mL (≈ 1.24 µM); in test [2], 1.56 µg/mL (≈ 4.95 µM); in test [12] it was 0.39 µg/mL (≈ 1.24 µM); in test [3], not above 0.19 µg/mL; in the test on Streptococcus pyogenes, 3.12 µg/mL (≈ 9.9 µM); in the test with Escherichia coli B it was 1.56 µg/mL (≈ 4.95 µM). Also, the MIC stood at 1.56 µg/mL (≈ 4.95 µM) in the test on Escherichia coli V14; 3.12 µg/mL (≈ 9.9 µM) in the test on Escherichia coli V23; 12.5 µg/mL (≈ 39.6 µM) in the test on Enterobacter sp V19; 25 µg/mL (≈ 79.3 µM) with Klebsiella sp. R2; 3.12 µg/mL (≈ 9.9 µM) in the test with Proteus vulgaris V15; 0.39 µg/mL (≈ 1.24 µM) in the test on Proteus mirabilis V15. The MIC came out at 3.12 µg/mL (≈ 9.9 µM) with Proteus mirabilis 525; 0.39 µg/mL (≈ 1.24 µM) in the test with Shigella flexneri; 3.12 µg/mL (≈ 9.9 µM) in the test with Pseudomonas aeruginosa (in vitro); 1.56 µg/mL (≈ 4.95 µM) in the test on Salmonella typhimurium [4]; 1.56 µg/mL (≈ 4.95 µM) in the test with Salmonella panamae F15; 1.56 µg/mL (≈ 4.95 µM) in test [13]. The MIC (in the test on Salmonella derby F14; in [14]) was 3.12 µg/mL (≈ 9.9 µM) in each case.

As for `C[C@@H](O)[C@H]1C(=O)N2C(C(=O)O)=C(SCCN)C[C@H]12` [Thienamycin], the MIC in [1] is not above 0.39 µg/mL; in the test on Escherichia coli B, 0.78 µg/mL (≈ 2.86 µM); with Pseudomonas aeruginosa, 12.5 µg/mL (≈ 45.9 µM); in the test on Escherichia coli B Cef R, 12.5 µg/mL (≈ 45.9 µM); in the test with Escherichia coli RGN 238, 0.36 µg/mL (≈ 1.32 µM); in the test with Escherichia coli P 453, 0.78 µg/mL (≈ 2.86 µM). Further, the MIC in the test on Escherichia coli R 997 is 0.36 µg/mL (≈ 1.32 µM); in the test with Escherichia coli RP 1, 0.36 µg/mL (≈ 1.32 µM); with Escherichia coli R 6 K, 0.78 µg/mL (≈ 2.86 µM); in test [5], 12.5 µg/mL (≈ 45.9 µM); in test [7], 1.56 µg/mL (≈ 5.73 µM); in test [8] it was 1.56 µg/mL (≈ 5.73 µM).
